According to patent US6642227B2, “Inhibitors of c-Jun N-terminal kinases (JNK) and other protein kinases” (Vertex Pharmaceuticals Incorporated, priority 2001, dated 2003):

biological target: human Lck kinase (UniProt P06239); assay: Lck inhibition assay (A: radioactivity-based or B: spectrophotometric coupled-enzyme assay); assay type: biochemical; conditions: read-out: Lck Activity (Ki rating)
Protocol: The compounds were evaluated as inhibitors of human Lck kinase using either a radioactivity-based assay or spectrophotometric assay.
The compounds were assayed as inhibitors of full length bovine thymus Lck kinase (from Upstate Biotechnology, cat. no. 14-106) expressed and purified from baculo viral cells. Lck kinase activity was monitored by following the incorporation of ^33p from ATP into the tyrosine of a random poly Glu-Tyr polymer substrate of composition, Glu:Tyr=4:1 (Sigma, cat. no. P-0275). The following were the final concentrations of the assay components: 0.025 M HEPES, pH 7.6, 10 mM MgCl2, 2 mM DTT, 0.25 mg/ml BSA, 10 μM ATP (1-2 μCi ^33P-ATP per reaction), 5 mg/ml poly Glu-Tyr, and 1-2 units of recombinant human […] kinase. In a typical assay, all the reaction components with the exception of ATP were pre-mixed and aliquoted into assay plate wells. Inhibitors dissolved in DMSO were added to the wells to give a final DMSO concentration of 2.5%. The assay plate was incubated at 30 C. for 10 min before initiating the reaction with ^33P-ATP. After 20 min of reaction, the reactions were quenched with 150 μl of 10% trichloroacetic acid (TCA) containing 20 mM Na3PO4. The quenched samples were then transferred to a 96-well filter plate (Whatman, UNI-Filter GF/F Glass Fiber Filter, cat no. 7700-3310) installed on a filter plate vacuum manifold. Filter plates were washed four times with 10% TCA containing 20 mM Na3PO4 and then 4 times with methanol. 200 μl of scintillation fluid was then added to each well. The plates were sealed and the amount of radioactivity associated with the filters was quantified on a TopCount scintillation counter. The radioactivity incorporated was plotted as a function of the inhibitor concentration. The data was fitted to a competitive inhibition kinetics model to get the Ki for the compound.
The ADP produced from ATP by the human recombinant Lck kinase-catalyzed phosphorylation of poly Glu-Tyr substrate was quanitified using a coupled enzyme assay (Fox et al (1998) Protein Sci 7, 2249). In this assay one molecule of NADH is oxidised to NAD for every molecule of ADP produced in the kinase reaction. The disappearance of NADH can be conveniently followed at 340 nm.
The following were the final concentrations of the assay components: 0.025 M HEPES, pH 7.6, 10 mM MgCl2, 2 mM DTT, 5 mg/ml poly Glu-Tyr, and 50 nM of recombinant human Lck kinase. Final concentrations of the components of the coupled enzyme system were 2.5 mM phosphoenolpyruvate, 200 μM NADH, 30 μg/ml pyruvate kinase and 10 μg/ml lactate dehydrogenase.
In a typical assay, all the reaction components with the exception of ATP were pre-mixed and aliquoted into assay plate wells. Inhibitors dissolved in DMSO were added to the wells to give a final DMSO concentration of 2.5%. The assay plate was incubated at 30° C. for 10 min before initiating the reaction with 150 μM ATP. The absorbance change at 340 nm with time, the rate of the reaction, was monitored on a molecular devices plate reader. The data of rate as a function of the inhibitor concentration was fitted to competitive inhibition kinetics model to get the Ki for the compound.

SMILES	Ki [nM]
CSc1sc(-c2nc(Nc3cccc(N)c3)ncc2C)c(C2CCCCC2)c1C#N [Compound V-8, 5-[2-(3-Aminophenylamino)-5-methyl-pyrimidin-4-yl]-4-cyclohexyl-2-methylsulfanyl-thiophene-3-carbonitrile]	< 100
CSc1sc(-c2nc(Nc3cccc(O)c3)ncc2C)c(-c2cccnc2)c1C#N [Compound V-24]	< 100
CSc1sc(-c2ccnc(Nc3cccc(S(N)(=O)=O)c3)n2)c(-c2ccccc2)c1C#N [IIa-38, 3-[4-(4-cyano-5-methylsulfanyl-3-phenyl-thiophen-2-yl)-pyrimidin-2-ylamino]-benzenesulfonamide]	< 100
N#Cc1c(SCc2ccc(O)cc2)sc(-c2ccnc(Nc3ccccc3)n2)c1-c1ccccc1 [IIa-39, 2-(4-Hydroxy-benzylsulfanyl)-4-phenyl-5-(2-phenylamino-pyrimidin-4-yl)-thiophene-3-carbonitrile]	< 100
CSc1sc(-c2ccnc(Nc3cccc(O)c3)n2)c(-c2ccccc2)c1C#N [IIa-40, 5-[2-(3-Hydroxy-phenylamino)-pyrimidin-4-yl]-2-methylsulfanyl-4-phenyl-thiophene-3-carbonitrile]	< 100
CSc1sc(-c2ccnc(Nc3cccc(O)c3)n2)c(-c2cccc(-c3ccncc3)c2)c1C#N [IIa-105, 5-[2-(3-Hydroxy-phenylamino)-pyrimidin-4-yl]-2-methylsulfanyl-4-(3-pyridin-4-yl-phenyl)-thiophene-3-carbonitrile]	< 100
CSc1sc(-c2ccnc(Nc3cccc(OCCCN(C)CCO)c3)n2)c(C2CCCCC2)c1C#N [VI-1]	< 100
COCCNCCCOc1cccc(Nc2nccc(-c3sc(SC)c(C#N)c3C3CCCCC3)n2)c1 [VI-2]	< 100
CSc1sc(-c2ccnc(Nc3cccc(OCCCNCCO)c3)n2)c(C2CCCCC2)c1C#N [VI-3]	< 100
CSc1sc(-c2ccnc(Nc3cccc(OCCCN4CCC(O)CC4)c3)n2)c(C2CCCCC2)c1C#N [VI-4]	< 100
CSc1sc(-c2ccnc(Nc3cccc(OCCCN4CCC(CO)CC4)c3)n2)c(C2CCCCC2)c1C#N [VI-5]	< 100
CSc1sc(-c2ccnc(Nc3cccc(OCCCN4CCC[C@H]4CO)c3)n2)c(C2CCCCC2)c1C#N [VI-6]	< 100
CSc1sc(-c2ccnc(Nc3cccc(OCCCN4CCN(CCO)CC4)c3)n2)c(C2CCCCC2)c1C#N [VI-7]	< 100
CSc1sc(-c2ccnc(Nc3cccc(OCCCN4CCCC(O)C4)c3)n2)c(C2CCCCC2)c1C#N (centres unmarked) [VI-8]	< 100
CCN1CCN(CCCOc2cccc(Nc3nccc(-c4sc(SC)c(C#N)c4C4CCCCC4)n3)c2)CC1 [VI-9]	< 100
CSc1sc(-c2ccnc(Nc3cccc(OCCCN4CCNCC4)c3)n2)c(C2CCCCC2)c1C#N [VI-10]	< 100
CSc1sc(-c2ccnc(Nc3cccc(OCCCN4CCN(Cc5ccncc5)CC4)c3)n2)c(C2CCCCC2)c1C#N [VI-11]	< 100
CSc1sc(-c2ccnc(Nc3cccc(OCCCN4CCCC4)c3)n2)c(C2CCCCC2)c1C#N [VI-12]	< 100
CSc1sc(-c2ccnc(Nc3cccc(OCCCn4ccnc4)c3)n2)c(C2CCCCC2)c1C#N [VI-13]	< 100

SMILES	Ki [nM]
CSc1sc(-c2ccnc(Nc3cccc(OCCCn4cnc(C)c4)c3)n2)c(C2CCCCC2)c1C#N [VI-14]	< 100
CSc1sc(-c2ccnc(Nc3cccc(OCCCN4CCOCC4)c3)n2)c(C2CCCCC2)c1C#N [VI-15]	< 100
CSc1sc(-c2ccnc(Nc3cccc(OCCCN4CCSCC4)c3)n2)c(C2CCCCC2)c1C#N [VI-16]	< 100
CSc1sc(-c2ccnc(Nc3cccc(OCCCN4CCSC4)c3)n2)c(C2CCCCC2)c1C#N [VI-17]	< 100
CSc1sc(-c2ccnc(Nc3cccc(OCCCO)c3)n2)c(-c2cccnc2)c1C#N [VI-121]	100 to 1000
CSc1sc(-c2ccnc(Nc3cccc(OCCCN4CCCC4)c3)n2)c(-c2cccnc2)c1C#N [VI-122]	< 100
CSc1sc(-c2ccnc(Nc3cccc(OCCCN4CCNCC4)c3)n2)c(-c2cccnc2)c1C#N [VI-123]	100 to 1000
CSc1sc(-c2ccnc(Nc3cccc(OCCCO)c3)n2)c(-c2cccc(OCc3ccccc3)c2)c1C#N [VI-124]	100 to 1000
CSc1sc(-c2ccnc(Nc3cccc(OCCCN4CCNCC4)c3)n2)c(-c2cccc(OCc3ccccc3)c2)c1C#N [VI-125]	100 to 1000
CSc1sc(-c2ccnc(Nc3cccc(OCCCN4CCN(CCO)CC4)c3)n2)c(-c2cccc(OCc3ccccc3)c2)c1C#N [VI-126]	100 to 1000
CSc1sc(-c2ccnc(Nc3cccc(OCCCN4CCC(CO)CC4)c3)n2)c(-c2cccc(OCc3ccccc3)c2)c1C#N [VI-127]	100 to 1000
CSc1sc(-c2ccnc(Nc3cccc(OCCCN4CCN(CCO)CC4)c3)n2)c(-c2cccc(O)c2)c1C#N [VI-128]	< 100
CSc1sc(-c2ccnc(Nc3cccc(OCCCN4CCC(CO)CC4)c3)n2)c(-c2cccc(O)c2)c1C#N [VI-129]	< 100
CSc1sc(-c2ccnc(Nc3cccc(NC(=O)CCN4CCCCC4)c3)n2)c(-c2cccnc2)c1C#N [VI-131]	< 100
CSc1sc(-c2ccnc(Nc3cccc(NC(=O)Cc4ccccn4)c3)n2)c(-c2cccnc2)c1C#N [VI-136]	< 100
CSc1sc(-c2ccnc(Nc3cccc(NC(=O)Cc4csc(N)n4)c3)n2)c(-c2cccnc2)c1C#N [VI-137]	< 100
CSc1sc(-c2ccnc(Nc3cccc(NC(=O)CC4CC4)c3)n2)c(-c2cccnc2)c1C#N [VI-138, 3-cyano-4-(3-pyridyl)-5-[2-(3-N-cyclopropylacetamido)-aminophenylamino]-pyrimidin-4-yl-2-thiomethyl thiophene]	< 100
CSc1sc(-c2ccnc(Nc3cccc(NC(=O)CCC4NC(=O)CNC4=O)c3)n2)c(-c2cccnc2)c1C#N (centres unmarked) [VI-139]	< 100
CCN(CC)CCC(=O)Nc1cccc(Nc2nccc(-c3sc(SC)c(C#N)c3-c3cccnc3)n2)c1 [VI-140]	< 100
